Earlier results in US20240216476A1, “COMBINATION OF BITTER RECEPTOR AGONIST AND GUT-SIGNALING COMPOUND” (AARDVARK THERAPEUTICS, INC., priority 2021, published 2024).
Read-outs that look alike come from different tables or passages of the source. Marks after values point to notes of the source that are not given here.

Legend:
NASH in vivo models = details: cited from earlier work
[1] = cited from earlier work
[2] = Male DIAMOND mice fed WDSW for 24 weeks, 30 mg/kg/day PO QD for the last 8 weeks
[3] = Male C57BL/6J mice fed AMLN diet for 50 weeks, 30 mg/kg, PO, QD for 8 weeks
[4] = Male C57BL/6J mice fed high fat diet for 20 weeks, 0.3 mg/kg/day PO for 20 weeks
[5] = C57Bl6/J mice fed MCD diet for 3 weeks, 10 or 30 mg/kg, PO, QD for 3 weeks
[6] = Male C57BL/6 mice fed CDAHFD diet for 20 weeks, 3 mg/kg PO for 12 weeks
[7] = mouse model of diet-induced NASH, 10 mg/kg/day PO for eight weeks
[8] = mouse model of diet-induced NASH, 10 mg/kg/day PO for eight weeks, significantly
[9] = Male C57BL/6 mice fed fast food diet for 330 days, treatment started after 240 days, dose unknown
[10] = C57BL/6 mice on 60% high fat diet for 36 weeks, 0.3-3 mg/kg/day PO for 24 days
[11] = C57BL/6 male mice fed MCD diet for 4 weeks, 5 mg/kg/day PO for the last 2 weeks

COc1cccc(C(=O)COc2ccc(CC3SC(=O)[N-]C3=O)cc2)c1.[K+] (centres unmarked) [Azemiglitazone (MSDC 0602K)]
NASH CRN fibrosis score (NASH in vivo models; [2]): treated group was 0. | ballooning (NASH in vivo models; [2]): significantly decreased | mice progressed from simple steatosis to NASH compared to the control group (NASH in vivo models; [2]): Significantly fewer | serum levels of fasting insulin, and AST and ALT (NASH in vivo models; [2]): dramatically reduced | steatosis-activity-fibrosis (SAF) score (NASH in vivo models; Male DIAMOND mice fed WDSW for 24 weeks, 30 mg/kg/day PO QD for the last 8 weeks, significantly, reduced to the level of baseline controls): lower in the MSDC-

O=C(O)c1cc(F)c2nc(N3[C@@H]4CC[C@H]3C[C@@H](OCc3c(-c5ccccc5OC(F)(F)F)noc3C3CC3)C4)sc2c1 [Tropifexor]
inflammation, steatosis, and fibrosis (NASH in vivo models; AMLN model (C57BL/6J mice on AMLN diet for 30 weeks), 0.03-0.9 mg/kg for the last 4 weeks): tropifexor reduced | mRNA levels of fibrogenic markers and hepatic inflammation cell populations (NASH in vivo models; AMLN model (C57BL/6J mice), 0.03-0.9 mg/kg for the last 4 weeks): dramatically reduced | ALT/AST levels relative to controls (NASH in vivo models; AMLN model (C57BL/6J mice), 0.03-0.9 mg/kg for the last 4 weeks, dose-dependent): reduction in ALT/AST

CC[C@H]1[C@@H](O)[C@@H]2[C@H](CC[C@]3(C)[C@@H]([C@H](C)CCC(=O)O)CC[C@@H]23)[C@@]2(C)CC[C@@H](O)C[C@@H]12 [Obeticholic acid (INT-747)]
histopathological scores of hepatic steatosis and inflammation (NASH in vivo models; [3]): Significantly reduced | liver weight (NASH in vivo models; [3]): Significantly reduced | total liver TG and total cholesterol, collagen 1a1, and galectin-3 content (NASH in vivo models; [3]): Significantly reduced | plasma total cholesterol (NASH in vivo models; Male C57BL/6J mice fed AMLN diet for 50 weeks, 30 mg/kg, PO, QD for 8 weeks, significant): reduced plasma total

CCCCOCCOc1ccc(-c2ccc3c(c2)/C=C(/C(=O)Nc2ccc([S@@+]([O-])Cc4cncn4CCC)cc2)CCCN3CC(C)C)cc1 [Cenicriviroc]
intrahepatic accumulation of inflammatory macrophages (NASH in vivo models; Male C57BL/6N mice fed CDAHFD, IP, 30 mg/kg/day for 4 or 14 weeks): Inhibited intrahepatic | frequency of intrahepatic anti-inflammatory macrophages (NASH in vivo models; Male C57BL/6N mice fed CDAHFD, IP, 30 mg/kg/day for 14 weeks): weeks, and increased | fibrosis on histopathology (NASH in vivo models; Male C57BL/6N mice fed CDAHFD, IP, only with 30 mg/kg/day for 14 weeks): Significantly improved

C[C@H](NC(=O)C(=O)Nc1ccccc1C(C)(C)C)C(=O)N[C@@H](CC(=O)O)C(=O)COc1c(F)c(F)cc(F)c1F [Emricasan]
inflammation, ballooning, and fibrosis on histopathology (NASH in vivo models; [4]): Improved | serum levels of glucose, HOMA-IR, cholesterol, ALT, and AST (NASH in vivo models; [4]): Decreased serum levels

CCCCCCCCCCCCCCCC(=O)N[C@@H](CCC(=O)NCCCC[C@H](NC(=O)[C@H](C)NC(=O)[C@H](C)NC(=O)[C@H](CCC(N)=O)NC(=O)CNC(=O)[C@H](CCC(=O)O)NC(=O)[C@H](CC(C)C)NC(=O)[C@H](Cc1ccc(O)cc1)NC(=O)[C@H](CO)NC(=O)[C@H](CO)NC(=O)[C@@H](NC(=O)[C@H](CC(=O)O)NC(=O)[C@H](CO)NC(=O)[C@@H](NC(=O)[C@H](Cc1ccccc1)NC(=O)[C@@H](NC(=O)CNC(=O)[C@H](CCC(=O)O)NC(=O)[C@H](C)NC(=O)[C@@H](N)Cc1cnc[nH]1)[C@@H](C)O)[C@@H](C)O)C(C)C)C(=O)N[C@@H](CCC(=O)O)C(=O)N[C@@H](Cc1ccccc1)C(=O)N[C@H](C(=O)N[C@@H](C)C(=O)N[C@@H](Cc1c[nH]c2ccccc12)C(=O)N[C@@H](CC(C)C)C(=O)N[C@H](C(=O)N[C@@H](CCCNC(=N)N)C(=O)NCC(=O)N[C@@H](CCCNC(=N)N)C(=O)NCC(=O)O)C(C)C)[C@@H](C)CC)C(=O)O [Liraglutide]
Incidence of Hypoglycemic Episodes for Combination with Metformin (vs. Placebo) ([1]; prescribing information): 3.6% | Incidence of Hypoglycemic Episodes for Combination with a Sulfonylurea (vs. Placebo) ([1]; prescribing information, lixisenatide: add-on to a sulfonylurea with or without metformin): 7.5%

O=C(O)CCCc1cc2cc(Cl)ccc2n1S(=O)(=O)c1ccc2ncsc2c1 [Lanifibranor (IVA337)]
induction of profibrotic and fibrotic genes (NASH in vivo models; [5]): inhibited the induction | plasma alanine aminotransferase levels (NASH in vivo models; [5]): significantly reduced | steatosis and inflammation on histopathology (NASH in vivo models; [5]): IVA337 prevented

CCO[C@@H](Cc1ccc(OCCn2c(C)ccc2-c2ccc(SC)cc2)cc1)C(=O)O [Saroglitazar]
hepatic steatosis (NASH in vivo models; [6]): induced reversal of | liver TNFα levels and hepatic fibrogenic and inflammatory gene expression (NASH in vivo models; [6]): reduced liver TNFα | reduction of serum ALT (NASH in vivo models; [6]): including ALT (60%), | reduction of serum AST (NASH in vivo models; [6]): AST (43%), and MCP1 | reduction of serum MCP1 (NASH in vivo models; [6]): (45%). Liver lipid (TG) | vacuolation and ballooning (NASH in vivo models; [6]): reduced or no

CC[C@H]1[C@@H](O)[C@@H]2[C@H](CC[C@]3(C)[C@@H]([C@H](C)CCNC(=O)NS(=O)(=O)c4ccc(C(C)(C)C)cc4)CC[C@@H]23)[C@@]2(C)CC[C@@H](O)C[C@@H]12 [EDP-305]
fibrogenic gene expression (NASH in vivo models; Male C57BL/6 mice fed CDAHFD diet for 12 weeks, high dose (30 mg/kg daily PO) from week 6, significant): decreased fibrogenic | fibrosis progression on histopathology (NASH in vivo models; Male C57BL/6 mice fed CDAHFD diet for 12 weeks, high-dose 30 mg/kg daily PO from beginning of week 6): halted fibrosis

Cc1cc(OCP2(=O)OCC[C@@H](c3cccc(Cl)c3)O2)cc(C)c1Cc1ccc(O)c(C(C)C)c1 (some centres unmarked) [VK2809]
NAS score, mean improvement (NASH in vivo models; [7]): (a 40% mean | all subcomponents of NAS (inflammation, ballooning, and steatosis) (NASH in vivo models; [7]): Improvements in all | liver contents of triglyceride, cholesterol, collagen, and hydroxyproline (NASH in vivo models; [8]): improved liver contents | liver fibrosis on histopathology (NASH in vivo models; [8]): improved NAS score | plasma triglycerides and cholesterol (NASH in vivo models; [8]): reduced plasma

Cc1cc(F)c(C(=O)Nc2cccc(-c3nncn3C(C)C)n2)cc1-n1cnc(C2CC2)c1 [Selonsertib (GS-4997)]
liver steatosis, fibrosis, and insulin resistance (NASH in vivo models; [9]): Significantly reduced | reduction of liver cholesterol (NASH in vivo models; [9]): 45% | reduction of serum bile acid cholate (NASH in vivo models; [9]): cholate (91% reduction) | reduction of serum cholesterol (NASH in vivo models; [9]): 14%

CC(C)c1cc(Oc2c(Cl)cc(-n3nc(C#N)c(=O)[nH]c3=O)cc2Cl)n[nH]c1=O [Resmetirom (MGL-3196)]
insulin sensitivity (NASH in vivo models; [10]): Improved insulin | reduction of serum ALT (NASH in vivo models; [10]): (46%), free fatty acids | reduction of serum cholesterol (NASH in vivo models; [10]): (67%). | reduction of serum free fatty acids (NASH in vivo models; [10]): (30%), and cholesterol | steatosis, fibrosis or inflammation in treated livers (NASH in vivo models; [10]): No detectable

CSc1ccc(C(=O)/C=C/c2cc(C)c(OC(C)(C)C(=O)O)c(C)c2)cc1 [Elafibranor (GFT505)]
histopathological scores of hepatic steatosis and inflammation, as well as fibrosis severity (NASH in vivo models; [3]): Significantly reduced | liver TG, total cholesterol contents, or plasma levels of ALT, AST, TG or total cholesterol (NASH in vivo models; [3]): No effects on liver TG,

Lixisenatide
Incidence of Hypoglycemic Episodes for Combination with Insulin (vs. Placebo) ([1]; in vivo): 28%* | Incidence of Hypoglycemic Episodes for Combination with Metformin (vs. Placebo) ([1]; in vivo): 3% | Incidence of Hypoglycemic Episodes for Combination with a Sulfonylurea (vs. Placebo) ([1]; in vivo): 15%** | Incidence of Hypoglycemic Episodes for Monotherapy at the Highest Dose (vs. Placebo) ([1]; in vivo): 2%

CCCCCCCCCCCCCCCCCCCC(=O)N[C@H]1CC[C@@]2(C)[C@@H](C1)C[C@@H](O)[C@@H]1[C@@H]2C[C@H](O)[C@]2(C)[C@@H]([C@H](C)CCC(=O)O)CC[C@@H]12.CNC[C@H](O)[C@@H](O)[C@H](O)[C@H](O)CO [Aramchol]
ALT, AST, or TG (NASH in vivo models; [11]): No effects on ALT, | features of steatohepatitis and fibrosis (NASH in vivo models; [11]): Reduced features of | protein expression of COL1A1 in the liver (NASH in vivo models; [11]): decreased protein
